The values that follow come from US10703746B2, “Mutant IDH1 inhibitors useful for treating cancer” (THE UNITED STATES OF AMERICA, AS REPRESENTED BY THE …, priority 2014, dated 2020).

Test [1] deals with IDH1 R132H (Homo sapiens, UniProt O75874, R132H). Put plainly: IDH1 R132H enzymatic assay (NADPH depletion coupled to diaphorase/resazurin). To be noted: IDH1 R132H enzymatic inhibition, IC50 class. Format: biochemical.
For test [2], the target named is IDH1 R132C (Homo sapiens, UniProt O75874, R132C). Put plainly: IDH1 R132C enzymatic assay (NADPH depletion coupled to diaphorase/resazurin). Format: biochemical. The note with it: IDH1 R132C enzymatic inhibition, IC50 class. The method in brief:
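NADPH depletion, read via diaphorase/resazurin coupling, after adding substrate at 0.6 mM α-KG and 0.012 mM NADPH. Beforehand, 0.00032 mg/mL enzyme sat with compound 30 min at room temperature in pH 6.5 potassium phosphate buffer with MgCl2, glycerol and BSA.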
On the technique in general: Resazurin is reduced to fluorescent resorufin, in cell work by metabolically active cells.

Sequence of IDH1 R132C (O75874 whole entry R132C): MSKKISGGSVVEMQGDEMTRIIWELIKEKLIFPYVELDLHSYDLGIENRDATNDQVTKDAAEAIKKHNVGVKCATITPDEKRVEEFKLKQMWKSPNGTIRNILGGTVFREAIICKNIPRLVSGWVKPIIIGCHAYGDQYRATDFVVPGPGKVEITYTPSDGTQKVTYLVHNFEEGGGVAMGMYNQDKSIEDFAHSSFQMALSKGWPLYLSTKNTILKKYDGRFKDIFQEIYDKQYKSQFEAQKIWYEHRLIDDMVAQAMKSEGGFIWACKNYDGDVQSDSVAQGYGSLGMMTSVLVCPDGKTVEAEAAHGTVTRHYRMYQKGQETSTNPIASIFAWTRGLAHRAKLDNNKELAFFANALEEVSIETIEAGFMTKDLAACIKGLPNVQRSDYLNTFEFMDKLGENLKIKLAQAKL
Sequence of IDH1 R132H (O75874 whole entry R132H): as the sequence (O75874 whole entry R132C) above, with C132H counted along it

For the compound `CCc1cccc(CC)c1-n1c(C(C)C)c(C(=O)N2CCN[C@@H](C(=O)OC)C2)cc(-c2nc(-c3ccc(Cl)cc3)cs2)c1=O` [Compound 222], the IC50 was 1 to 5 µM in test [1] and less than 0.3 µM in test [2].
The corresponding values for `CCc1cccc(CC)c1-n1c(C)c(C(=O)N2CCCC(N)C2)cc(-c2nc(-c3ccc(Cl)cc3)cs2)c1=O` (stereo not shown) [Compound 223] are 1 to 5 µM and less than 0.3 µM.
The corresponding values for `CCc1cccc(CC)c1-n1c(CC(C)C)c(C(=O)N2CCNCC2)cc(-c2nc(-c3ccc(OC)cc3)c(C)s2)c1=O` [Compound 224] are 0.3 to 1 µM and 0.3 to 1 µM.
The like results for `COc1ccc(OC)c(-n2c3c(cc(-c4nc(-c5ccccc5)cs4)c2=O)C(=O)CC(C)(C)C3)c1` [Compound 225] were, in that order, 1 to 5 µM and 1 to 5 µM.
Regarding `CCc1cccc(CC)c1-n1c2c(cc(-c3nc(-c4ccccc4F)cs3)c1=O)C(=O)CC(C)(C)C2` [Compound 226], the concentration for half-maximal inhibition (IC50) in test [1] and in test [2] was 1 to 5 µM throughout.
In the case of `CC1(C)CC(=O)c2cc(-c3nc(-c4ccc(Cl)cc4)cs3)c(=O)n(-c3ccccc3C(=O)O)c2C1` [Compound 227], the IC50 in test [1] and in test [2] was 5 to 20 µM in each case.
As to `CCc1cccc(CC)c1-n1c2c(cc(-c3nc(-c4cccc(C(F)(F)F)c4)cs3)c1=O)C(=O)CC(C)(C)C2` [Compound 228], the IC50 in test [1] and in test [2] was greater than 20 µM each time.
With `CCc1cccc(CC)c1-n1c(C(C)C)c(C(=O)N2CCN[C@@H](CO)C2)cc(-c2nc(-c3ccc(Cl)cc3)cs2)c1=O` [Compound 229], the IC50 in test [1] was 0.3 to 1 µM; in test [2], less than 0.3 µM.
The like results for `CCc1cccc(CC)c1-n1c2c(cc(-c3nc(-c4ccccc4C(F)(F)F)cs3)c1=O)C(=O)CC(C)(C)C2` [Compound 230] were, in that order, 5 to 20 µM and 1 to 5 µM.
The like results for `CCc1cccc(CC)c1-n1c(CC(C)C)c(C(=O)N2CCNCC2)cc(-c2nc(-c3ccc(Cl)cc3)cs2)c1=O` [Compound 231] were, in that order, less than 0.3 µM and less than 0.3 µM.
On to `CCc1cccc(CC)c1-n1c(CC(C)C)c(C(=O)NCC(O)c2ccccc2)cc(-c2nc(-c3ccc(Cl)cc3)cs2)c1=O` (stereo not shown) [Compound 232], for which the IC50 was 0.3 to 1 µM in test [1] and less than 0.3 µM in test [2].
The like results for `CCc1cccc(CC)c1-n1c2c(cc(-c3nc(-c4ccc(C)cc4)cs3)c1=O)C(=O)CC(C)(C)C2` [Compound 233] were, in that order, 0.3 to 1 µM and 0.3 to 1 µM.
With `CCc1cccc(CC)c1-n1c(C(C)C)c(C(=O)N2CCN[C@@H](C)C2)cc(-c2nc(-c3ccc(Cl)cc3)cs2)c1=O` [Compound 234], the IC50 in test [1] is 1 to 5 µM; in test [2] it was 0.3 to 1 µM.
The like results for `CCc1cccc(CC)c1-n1c(CC(C)C)c(C(=O)N2CCNCC2)cc(-c2nc(-c3ccc(C#N)cc3)c(C)s2)c1=O` [Compound 235] were, in that order, less than 0.3 µM and less than 0.3 µM.
On to `CCc1cccc(CC)c1-n1c(CC)c(C(=O)O)cc(-c2nc(-c3ccc(Cl)cc3)cs2)c1=O` [Compound 236], for which the figures for the IC50 in test [1] and in test [2] were 1 to 5 µM and 5 to 20 µM, respectively.
The like results for `CCc1cccc(CC)c1-n1c(C)c(C(=O)NC2CCC(N)CC2)cc(-c2nc(-c3ccc(Cl)cc3)cs2)c1=O` (stereo not shown) [Compound 237] were, in that order, 5 to 20 µM and 5 to 20 µM.
The like results for `CCc1cccc(CC)c1-n1c(CC(C)C)c(C(=O)N2CCNCC2)cc(-c2nc(-c3ccc(CN4CCOCC4)cc3)c(C)s2)c1=O` [Compound 238] were, in that order, 5 to 20 µM and 5 to 20 µM.
The corresponding values for `CCc1cccc(CC)c1-n1c2c(cc(-c3nc(-c4cnn(C)c4)c(C)s3)c1=O)C(=O)CC(C)(C)C2` [Compound 239] are 1 to 5 µM and 1 to 5 µM.
For `CCc1cccc(CC)c1-n1c2c(cc(-c3nc(-c4cccc(C)c4)cs3)c1=O)C(=O)CC(C)(C)C2` [Compound 240], the IC50 was 5 to 20 µM in test [1] and 1 to 5 µM in test [2].
The like results for `CC1(C)CC(=O)c2cc(-c3nc(-c4ccc(Cl)cc4)cs3)c(=O)n(-c3ccccc3C(C)(C)C)c2C1` [Compound 241] were, in that order, 1 to 5 µM and 0.3 to 1 µM.
The corresponding values for `CCc1cccc(CC)c1-n1c(C)c(C(=O)N2CC(O)C2)cc(-c2nc(-c3ccc(Cl)cc3)cs2)c1=O` [Compound 242] are 1 to 5 µM and 1 to 5 µM.
On to `CCc1cccc(CC)c1-n1c(CC(C)C)c(C(=O)N2CCCC2CO)cc(-c2nc(-c3ccc(Cl)cc3)cs2)c1=O` (stereo not shown) [Compound 243], for which the IC50 in test [1] and in test [2] was 1 to 5 µM throughout.
Turning to `COc1ccc(OC)c(-n2c3c(cc(-c4nc(-c5ccc(Cl)cc5)cs4)c2=O)C(=O)NCC3)c1` [Compound 244], the IC50 in test [1] and in test [2] was 1 to 5 µM in each case.
In the case of `CCc1cccc(CC)c1-n1c(C)c(C(=O)N2CCC(N)C2)cc(-c2nc(-c3ccc(Cl)cc3)cs2)c1=O` (stereo not shown) [Compound 245], the IC50 in test [1] and in test [2] was 1 to 5 µM each time.
As for `Cc1cccc(O)c1-n1c2c(cc(-c3nc(-c4ccc(Cl)cc4)cs3)c1=O)C(=O)CC(C)(C)C2` [Compound 246], the IC50 in test [1] and in test [2] was 1 to 5 µM each time.
For the compound `CCc1cccc(CC)c1-n1c(C(C)C)c(C(=O)N2CCN[C@H](C(=O)OC)C2)cc(-c2nc(-c3ccc(Cl)cc3)cs2)c1=O` [Compound 247], the results for the IC50 in test [1] and in test [2] were 5 to 20 µM and 1 to 5 µM, respectively.
The like results for `CC1(C)CC(=O)c2cc(-c3nc(-c4ccc(Cl)cc4)cs3)c(=O)n(-c3ccccc3N3CCOCC3)c2C1` [Compound 248] were, in that order, 1 to 5 µM and 0.3 to 1 µM.
The corresponding values for `CCc1cccc(CC)c1-n1c2c(cc(-c3nc(-c4cccc(O)c4)cs3)c1=O)C(=O)CC(C)(C)C2` [Compound 249] are 1 to 5 µM and 1 to 5 µM.
Consider `CCc1cccc(CC)c1-n1c(C)c(C(=O)N2CCCC(O)C2)cc(-c2nc(-c3ccc(Cl)cc3)cs2)c1=O` (stereo not shown) [Compound 250], for which the IC50 in test [1] and in test [2] was 1 to 5 µM each time.
Regarding `CCc1cccc(CC)c1-n1c2c(cc(-c3nc(-c4ccc(Cl)cc4)c(C)s3)c1=O)C(=O)CC(C)(C)C2` [Compound 251], the IC50 in test [1] was 0.3 to 1 µM; in test [2], less than 0.3 µM.
The like results for `CCc1cccc(CC)c1-n1c(C(C)C)c(C(=O)N2CCN[C@H](CO)C2)cc(-c2nc(-c3ccc(Cl)cc3)cs2)c1=O` [Compound 252] were, in that order, 0.3 to 1 µM and 0.3 to 1 µM.
The like results for `COc1ccc(OC)c(-n2c3c(cc(-c4nc(-c5ccc(Cl)cc5)cs4)c2=O)C(=O)CN(C)C3)c1` [Compound 253] were, in that order, 1 to 5 µM and 1 to 5 µM.
The corresponding values for `COC(=O)c1ccccc1-n1c2c(cc(-c3nc(-c4ccc(Cl)cc4)cs3)c1=O)C(=O)CC(C)(C)C2` [Compound 254] are 0.3 to 1 µM and 0.3 to 1 µM.
In the case of `CC1(C)CC(=O)c2cc(-c3nc(-c4ccncc4)cs3)c(=O)n(-c3ccccc3C(F)(F)F)c2C1` [Compound 255], the concentration for half-maximal inhibition (IC50) in test [1] and in test [2] was 1 to 5 µM in each case.
`CC(C)COc1ccccc1-n1c2c(cc(-c3nc(-c4ccc(Cl)cc4)cs3)c1=O)C(=O)CC(C)(C)C2` [Compound 256]: the IC50 in test [1] and in test [2] was 0.3 to 1 µM in each case.
In the case of `CCc1cccc(CC)c1-n1c(CC(C)C)c(C(=O)N2CCNCC2)cc(-c2nc(-c3ccc(OC(C)C)cc3)c(C)s2)c1=O` [Compound 257], the IC50 in test [1] is 0.3 to 1 µM; in test [2] it was less than 0.3 µM.
The corresponding values for `CCc1cccc(CC)c1-n1c(C)c(C(=O)N2CCCC2C(=O)O)cc(-c2nc(-c3ccc(Cl)cc3)cs2)c1=O` (stereo not shown) [Compound 258] are 1 to 5 µM and 1 to 5 µM.
The corresponding values for `CCc1cccc(CC)c1-n1c(C)c(C(=O)N2CCCC(C(=O)O)C2)cc(-c2nc(-c3ccc(Cl)cc3)cs2)c1=O` (stereo not shown) [Compound 259] are 5 to 20 µM and 5 to 20 µM.
The corresponding values for `CCc1cccc(CC)c1-n1c(C)c(C(=O)NCC(N)=O)cc(-c2nc(-c3ccc(Cl)cc3)cs2)c1=O` [Compound 260] are 1 to 5 µM and 1 to 5 µM.
As to `COc1ccc(OC)c(-n2c3c(cc(-n4cc(-c5ccccc5)nn4)c2=O)C(=O)CC(C)(C)C3)c1` [Compound 261], the IC50 in test [1] and in test [2] was 5 to 20 µM each time.
`CCc1cccc(CC)c1-n1c(C)c(C(=O)NCCCO)cc(-c2nc(-c3ccc(Cl)cc3)cs2)c1=O` [Compound 262]: the values for the concentration for half-maximal inhibition (IC50) in test [1] and in test [2] were 1 to 5 µM and 0.3 to 1 µM, respectively.
In the case of `CCc1cccc(CC)c1-n1c(CC(C)C)c(C(=O)NC2CCNCC2)cc(-c2nc(-c3ccc(Cl)cc3)cs2)c1=O` [Compound 263], the figures for the IC50 in test [1] and in test [2] were 0.3 to 1 µM and less than 0.3 µM, respectively.
The corresponding values for `CCc1cccc(CC)c1-n1c(C(C)C)c(C(=O)N2CCN[C@H](C(=O)O)C2)cc(-c2nc(-c3ccc(Cl)cc3)cs2)c1=O` [Compound 264] are 0.3 to 1 µM and less than 0.3 µM.
The like results for `CCc1cccc(CC)c1-n1c(C)c(C(=O)NC2CC2)cc(-c2nc(-c3ccc(Cl)cc3)cs2)c1=O` [Compound 265] were, in that order, 1 to 5 µM and 1 to 5 µM.
The corresponding values for `COc1ccc(OC)c(-n2c3c(cc(-c4ncc(-c5ccc(Cl)cc5)s4)c2=O)C(=O)CC(C)(C)C3)c1` [Compound 266] are greater than 20 µM and greater than 20 µM.
For `CCc1cccc(CC)c1-n1c(CC(C)C)c(C(=O)N2CCNC[C@H]2C)cc(-c2nc(-c3ccc(Cl)cc3)cs2)c1=O` [Compound 267], the IC50 in test [1] was 0.3 to 1 µM; in test [2], less than 0.3 µM.
The corresponding values for `CCc1cccc(CC)c1-n1c(C)c(C(=O)OC)cc(-c2nc(-c3ccc(Cl)cc3)cs2)c1=O` [Compound 268, methyl 5-(4-(4-chlorophenyl)thiazol-2-yl)-1-(2,6-diethylphenyl)-2-methyl-6-oxo-1,6-dihydropyridine-3-carboxylate] are greater than 20 µM and 5 to 20 µM.

By IC50 is commonly meant the concentration needed to halve the response being measured. Low values mean greater potency, high ones weaker potency.
